These are literature values, as cited in patent publication US20060292216A1, “Enteric delivery of (-)-hydroxycitric acid” (priority 2003, published 2006).

For data set [1], the system named is human hepatoma cell line Hep G2.
The test system of data set [2] is experimental animals fed a high-sugar diet. Particulars: single large oral dose or two divided oral doses totaling one fourth of it.
The next data set relates to test subjects. The settings on record: chronic administration; resting and exercising conditions.
A further data set deals with humans. Particulars: conditions that elevate de novo lipogenesis.
Data set [3] deals with middle-aged rats fed a 30% fat diet.

Structures are written as SMILES.

In the case of `O=C(O)CC(O)(C(=O)O)C(O)C(=O)O` (single isomer, unassigned; (-)) [HCA, (−)-hydroxycitric acid], the “cholesterol biosynthesis, of the control value, by incorporation from 3H2O” value in data set [1] is reported as 27 % of the control value. In addition, in data set [1] (0.5 mM or higher, 2.5 h and 18 h incubations), the “incorporation of [1,5-14C]citrate into fatty acids and cholesterol” value is “strongly inhibited”. For the same compound, the “reduction in food consumption” value in data set [2] was ≥ 10%. Also, the respiratory exchange ratio entry with test subjects is given as “significantly lower”. Moreover, in the data set on humans, the “fat synthesis and energy expenditure” value is “reduced fat synthesis and increased energy expenditure”.
`O=C([O-])CC(O)(C(=O)[O-])C(O)C(=O)[O-].[K+].[K+].[K+]` (stereo not drawn) [potassium HCA]: the “protein and fat as percentage of body weight” value in data set [3] is “increased protein as a percentage of body weight while reducing fat as a percentage of body weight”.
